Reference: patent publication US12091402B2 (Avilar Therapeutics, Inc., priority 2021, dated 2024)
Like-named read-outs stand apart in the source and are kept apart here. Where a SMILES comes first, the peptide text is derived from it. Bridges are numbered along the chain shown (N, C = ends). The star is where a group is joined. X5 = O=C(CCCCCn1cc(CCCC(=O)*)nn1)NC(COCc1cn(CCOCCOCCOCCOC[C@H]2OC[C@H](Nc3nccc(C(F)(F)F)n3)[C@@H](O)[C@H]2O)nn1)COCc1cn(CCOCCOCCOCCOC[C@H]2OC[C@H](Nc3nccc(C(F)(F)F)n3)[C@@H](O)[C@H]2O)nn1; PEG4 = NCCOCCOCCOCCOCCC(=O)O

Assays:
[1] = target: IgG; experiment: Affinity to IgG by surface plasmon resonance (SPR); assay type: binding
Protocol: Immobilization levels ranging from 1000-1300 resonance units (RU) are obtained. The running buffer is 10 mM HEPES, pH 7.4, 400 mM NaCl, 0.005% P20, […].

[2] = target: T1, ASGPR (Homo sapiens, UniProt P07306); experiment: Affinity to ASGPR by surface plasmon resonance (SPR)
T1 sequence (P07306 1-291): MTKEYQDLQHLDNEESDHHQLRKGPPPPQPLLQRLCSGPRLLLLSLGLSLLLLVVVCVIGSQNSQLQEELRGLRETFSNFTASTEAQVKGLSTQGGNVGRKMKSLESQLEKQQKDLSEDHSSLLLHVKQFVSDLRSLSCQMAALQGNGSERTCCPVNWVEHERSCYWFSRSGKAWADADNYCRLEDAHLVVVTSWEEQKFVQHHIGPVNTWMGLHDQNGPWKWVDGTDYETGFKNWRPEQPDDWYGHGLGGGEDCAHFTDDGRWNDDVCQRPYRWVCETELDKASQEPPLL
Protocol: Biotinylated ASGPR (20 μg/ml) was immobilized on SA sensor chips (GE Healthcare) at flow rate of 5 μl/min for 90 sec reaching an immobilization level ranging from 500-3000 resonance units (RU). The running buffer was 50 mM HEPES, pH7.5, 150 mM NaCl, 50 mM CaCl2), 0.01% P20, 3% DMSO. The concentration of compounds vary from 2 mM to 5 nM depending on Kd values. The compounds are diluted 2 or 3-fold with 8 concentration points. Solutions containing serially diluted compounds are injected at a flow rate of 40 μL/min for 150-300 sec followed by a 90-300 sec dissociation phase for each concentration. The surface was regenerated using 50 mM HEPES, pH 7.5, 150 mM NaCl, 5 mM EDTA, 0.01% P20, 3% DMSO.
Data was processed using the analysis software in Biacore 8K to perform background subtraction, double referencing, and solvent correction. Values of affinity expressed as the dissociation constants (Kd) were determined by fitting the steady state binding responses (RUs) as a function of the concentration ([Compound]) using the following equation: RU=RUmax/(KD+[Compound]), where RU max is the calculated maximal response. Where appropriate double-referenced data were fit to using a 1:1 binding model for kinetic analysis.

[3] = Biacore 8K, 25° C., IgG on CM5 chip, read-out: IgG SPR Binding Kd

Compound | Kd ([1]; SPR, read-out: IgG KD) [nM] | Kd [1, 3] [nM] | Kd [2] [nM]
CC(C)C[C@@H]1NC(=O)[C@H](Cc2cnc[nH]2)NC(=O)[C@H](Cc2c[nH]c3ccccc23)NC(=O)[C@H](C)NC(=O)[C@@H]2CC/C=C/C[C@H](NC(=O)[C@H](Cc3c[nH]c4ccccc34)NC(=O)[C@H](C(C)C)NC(=O)[C@H](CC(C)C)NC(=O)[C@H](CCC(=O)O)NC(=O)CNC1=O)C(=O)N[C@@H]([C@@H](C)O)C(=O)N1CCC[C@@H]1C(=O)N1CCC[C@H]1C(=O)N[C@@H](CC(=O)O)C(=O)N2 | < 100 | – | –
CC(C)C[C@@H]1NC(=O)[C@H](Cc2cnc[nH]2)NC(=O)[C@H](Cc2c[nH]c3ccccc23)NC(=O)[C@H](C)NC(=O)[C@@H]2CSSC[C@H](NC(=O)[C@@H](Cc3c[nH]c4ccccc34)NC(=O)[C@H](C(C)C)NC(=O)[C@H](CC(C)C)NC(=O)[C@H](CCC(=O)O)NC(=O)CNC1=O)C(=O)N[C@@H]([C@@H](C)O)C(=O)N1CCC[C@@H]1C(=O)N1C[C@@H](N)C[C@H]1C(=O)N[C@@H](CC(=O)O)C(=O)N2 (stereo in doubt) [Intermediate 24] | < 100 | < 100 | –
O=C(CCOCc1ccc(-c2cccc3ccncc23)c(OCCc2ccc(-c3cccc4ccncc34)cc2)c1)NCCOCCOCCOCCOC[C@@]12CO[C@@H](O1)[C@H](Nc1cncc(C(F)(F)F)n1)[C@@H](O)[C@H]2O [Compound 56] | – | – | < 100
CC(C)C[C@@H]1NC(=O)[C@@H](NC(=O)[C@@H](NC(=O)[C@H](CCC(N)=O)NC(=O)[C@H](Cc2cnc[nH]2)NC(=O)CCOCCOCCOCCOCCNC(=O)CCCc2cn(CCCCCC(=O)NC(COCc3cn(CCOCCOCCOCCOC[C@H]4OC[C@H](Nc5nccc(C(F)(F)F)n5)[C@@H](O)[C@H]4O)nn3)COCc3cn(CCOCCOCCOCCOC[C@H]4OC[C@H](Nc5nccc(C(F)(F)F)n5)[C@@H](O)[C@H]4O)nn3)nn2)C(C)C)CSSC[C@@H](C(=O)N[C@@H](Cc2ccccc2)C(=O)N[C@@H](CO)C(=O)N[C@H](C(N)=O)[C@@H](C)O)NC(=O)[C@H](C(C)C)NC(=O)[C@@H]2CCCN2C(=O)[C@H](CCCNC(=N)N)NC(=O)CNC(=O)[C@H](CCCNC(=N)N)NC(=O)[C@H](Cc2ccc(O)cc2)NC(=O)[C@H](CO)NC1=O [Compound 57] ({X5-PEG4}-HQVCLSYRGRPVCFST-NH2; disulfide 4-13) | – | – | < 100
C#CCCCC(=O)NCCOCCOCCOCCOCCC(=O)N[C@@H](CC(=O)O)C(=O)N[C@H]1CSSC[C@@H](C(=O)N[C@H](C(N)=O)[C@@H](C)O)NC(=O)[C@H](Cc2c[nH]c3ccccc23)NC(=O)[C@H](C(C)C)NC(=O)[C@H](CC(C)C)NC(=O)[C@H](CCC(=O)O)NC(=O)CNC(=O)[C@H](CC(C)C)NC(=O)[C@H](Cc2cnc[nH]2)NC(=O)[C@H](Cc2c[nH]c3ccccc23)NC(=O)[C@H](C)NC1=O [Intermediate 1] | < 100 | < 100 | –
C#CCCCC(=O)NCCOCCOCCOCCOCCNC(=O)CC[C@@H]1NC(=O)CNC(=O)[C@H](CC(C)C)NC(=O)[C@H](Cc2cnc[nH]2)NC(=O)[C@H](Cc2c[nH]c3ccccc23)NC(=O)[C@H](C)NC(=O)[C@@H](NC(=O)[C@@H](N)CC(=O)O)CSSC[C@@H](C(=O)N[C@H](C(N)=O)[C@@H](C)O)NC(=O)[C@H](Cc2c[nH]c3ccccc23)NC(=O)[C@H](C(C)C)NC(=O)[C@H](CC(C)C)NC1=O [Intermediate 2] | – | < 100 | –
C#CCCCC(=O)NCCOCCOCCOCCOCCN[C@@H](CC(=O)O)C(=O)N[C@H]1CSSC[C@@H](C(=O)N[C@H](C(N)=O)[C@@H](C)O)NC(=O)[C@H](Cc2c[nH]c3ccccc23)NC(=O)[C@H](C(C)C)NC(=O)[C@H](CC(C)C)NC(=O)[C@H](CCC(=O)O)NC(=O)CNC(=O)[C@H](CC(C)C)NC(=O)[C@H](Cc2cnc[nH]2)NC(=O)[C@H](Cc2c[nH]c3ccccc23)NC(=O)[C@H](C)NC1=O [Intermediate 3] | – | < 100 | –
